Measured values as given in patent US9283037B2, “Laser microporator” (PANTEC BIOSOLUTIONS AG, priority 2006, dated 2016).

Assay: Serum concentration of drug over time after transdermal patch application onto laser-microporated skin (FIG. 9a-9b)
Format: in vivo, human
Details: over about two hours
Protocol: The drug is entering the permeation surface by passive diffusion. The amount of drug entering the permeation surface is mainly determined by the permeation surface A(t) over time. Therefore, the serum concentration as a function of time can be determined by an appropriate poration of the skin 1 with an initial microporation at time TP.
FIG. 9a to 9b show the administration of the same amount of drug, for example 100 mg acetylsalicylic acid, the drug being arranged on the skin 1 as disclosed in FIG. 5e. Depending on the permeation surface A(t) as a function of time, the level of the serum concentration as well as the time period within which the drug is released, can be predescribed. In FIG. 9a the permeation surface A(t) is chosen such that the maximal serum concentration is about 25 g/l over a short period of time of about two hours. […] A further advantage is that the same amount of drug, e.g. the same patch, applied onto the skin 1, causes a different serum concentration, depending only on the function of the permeation surface A over time. This allows administering the same drug in different ways. This also allows administering the same drug in an individual way, in that the permeation surface is created depending on individual parameters of the person the drug is applied to.

- maximal serum concentration (FIG. 9a, 100 mg acetylsalicylic acid in patch on microporated skin, transdermal application, chosen permeation surface A(t)): about 25 g/l
- maximal serum concentration (FIG. 9b, fast application (turbo), same amount of drug (100 mg) in patch on microporated skin): about 30 g/l
Structure (SMILES): CC(=O)Oc1ccccc1C(=O)O [acetylsalicylic acid]
